Results published in patent EP2396020B1, “NOVEL ANTIMICROBIAL PEPTIDES” (Institute Of Organic Chemistry And Biochemistry As CR, …, priority 2009, dated 2010).
Peptide text beside a SMILES is read from it.

Columns and labels:
[1] = tested on: Pseudomonnas aeruginosa; settings: LB broth, 37°C, 20 h
Procedure: (§2) Antimicrobial activity was determined as a quantitative minimum inhibitory concentration (MIC) by observing bacterial growth in the presence of different concentrations of tested peptides. Mid-exponential phase bacteria were added to the solutions of the tested antimicrobial peptide at different concentrations (0.5 to 100 µM) in LB broth in multi-well plates. The plates were incubated at 37°C for 20 h while being continuously shaken in a Bioscreen C instrument (Finland). The absorbance was measured at 540 nm every 15 min and each peptide was tested at least 3 times in duplicate. In the experiments was routinely used 1.2 10^3 - 7.5 10^3 CFU of bacteria. Tetracycline in a concentration range of 0.1 - 50 µM was tested as a standard.

[2] = tested on: Bacillus subtilis; settings: LB broth, 37°C, 20 h
Procedure: as §2

[3] = tested on: rat red blood cells; assay: Determination of hemolytic activity; assay type: cell-based; settings: rat red blood cells (5%), 1 h at 37°C, physiological solution
Procedure: (§1) The peptides in the concentration (1-200 µM) were incubated with rat red blood cells (5%) for 1 h at 37°C in a physiological solution at a final volume of 0.2 ml The samples were then centrifuged for 5 min at 250 g, and the absorbance of the supernatant was determined at 540 nm. Supernatants of red blood cells suspended in physiological solution and in 0.2% TRITON X100 in physiological solution served as controls for zero hemolysis (blank) and 100% hemolysis, respectively.

[4] = tested on: Escherichia coli; settings: LB broth, 37°C, 20 h
Procedure: as §2

[5] = tested on: Staphylococcus aureus; settings: LB broth, 37°C, 20 h
Procedure: as §2

[6] = Determination of hemolytic activity; assay type: cell-based; settings: rat red blood cells (5% suspension), 1 h at 37°C, physiological solution, read-out: hemolytic activity LC50
Procedure: as §1

Structure (SMILES)	antimicrobial activity MIC P.a. [1]	antimicrobial activity MIC B.s. [2]	hemolytic activity LC50 [3]	antimicrobial activity MIC E. c. [4]	antimicrobial activity MIC S.a. [5]	HC50 at 1 h [6] [µM]
CC[C@H](C)[C@H](NC(=O)[C@H](Cc1c[nH]cn1)NC(=O)[C@H](CCCCN)NC(=O)[C@H](CC(C)C)NC(=O)[C@H](CC(C)C)NC(=O)[C@H](CCCCN)NC(=O)[C@H](CCSC)NC(=O)[C@H](Cc1c[nH]c2ccccc12)NC(=O)[C@H](CCCCN)NC(=O)CN)C(=O)N[C@@H](CC(C)C)C(=O)N[C@@H](CCCCN)C(N)=O [(2-A/2), H-Gly-Lys-Trp-Met-Lys-Leu-Leu-Lys-His-Ile-Leu-Lys-NH2] (H-GKWMKLLKHILK-NH2)	10,7 µM	0,8 µM	87,5 µM	2,5 µM	4,5 µM	–
CC[C@H](C)[C@H](NC(=O)[C@H](Cc1c[nH]cn1)NC(=O)[C@H](CCCCN)NC(=O)[C@H](CC(C)C)NC(=O)[C@H](CC(C)C)NC(=O)[C@H](CO)NC(=O)[C@H](CCCCN)NC(=O)[C@H](Cc1c[nH]c2ccccc12)NC(=O)[C@H](CCCCN)NC(=O)CN)C(=O)N[C@@H](CC(C)C)C(=O)N[C@@H](CCCCN)C(N)=O [(2-A/1), H-Gly-Lys-Trp-Lys-Ser-Leu-Leu-Lys-His-Ile-Leu-Lys-NH2] (H-GKWKSLLKHILK-NH2)	12,5 µM	1,5 µM	–	3 µM	25 µM	95
CC[C@H](C)[C@H](NC(=O)[C@H](CC(C)C)NC(=O)[C@H](Cc1c[nH]cn1)NC(=O)CNC(=O)[C@H](CC(C)C)NC(=O)[C@@H](NC(=O)[C@H](CCCCN)NC(=O)[C@H](CO)NC(=O)[C@H](Cc1c[nH]c2ccccc12)NC(=O)[C@H](CCSC)NC(=O)CN)[C@@H](C)CC)C(=O)N[C@@H](CCCCN)C(N)=O [(1-A/3), H-Gly-Met-Trp-Ser-Lys-Ile-Leu-Gly-His-Leu-Ile-Lys-NH2] (H-GMWSKILGHLIK-NH2)	50 µM	0,75 µM	–	6.0 µM	12,5 µM	111
CC[C@H](C)[C@H](NC(=O)[C@H](CCCCN)NC(=O)[C@H](CO)NC(=O)[C@H](Cc1c[nH]c2ccccc12)NC(=O)[C@H](CCSC)NC(=O)CN)C(=O)N[C@@H](CC(C)C)C(=O)NCC(=O)N[C@@H](Cc1c[nH]cn1)C(=O)N[C@@H](CC(C)C)C(=O)N[C@@H](CCCCN)C(=O)N[C@@H](CCCNC(=N)N)C(N)=O [(1-A/2), H-Gly-Met-Trp-Ser-Lys-Ile-Leu-Gly-His-Leu-Lys-Arg-NH2] (H-GMWSKILGHLKR-NH2)	90 µM	2,2 µM	–	28 µM	100 µM	> 200
CC[C@H](C)[C@H](NC(=O)[C@H](CC(C)C)NC(=O)[C@H](Cc1c[nH]cn1)NC(=O)CNC(=O)[C@H](CC(C)C)NC(=O)[C@@H](NC(=O)[C@H](CCCCN)NC(=O)[C@H](CO)NC(=O)[C@H](Cc1c[nH]c2ccccc12)NC(=O)[C@H](CCSC)NC(=O)CN)[C@@H](C)CC)C(=O)N[C@@H](CCCNC(=N)N)C(N)=O [(1), H-Gly-Met-Trp-Ser-Lys-Ile-Leu-Gly-His-Leu-Ile-Arg-NH2] (H-GMWSKILGHLIR-NH2)	45 µM	0,7 µM	–	3,8 µM	7,4 µM	80
CC[C@H](C)[C@H](NC(=O)[C@H](CC(C)C)NC(=O)[C@H](CCCCN)NC(=O)CNC(=O)[C@H](CC(C)C)NC(=O)[C@@H](NC(=O)[C@H](CCCCN)NC(=O)[C@H](CCCCN)NC(=O)[C@H](Cc1c[nH]c2ccccc12)NC(=O)[C@H](CCCCN)NC(=O)CN)[C@@H](C)CC)C(=O)N[C@@H](CCCNC(=N)N)C(N)=O [(1-A/4), H-Gly-Lys-Trp-Lys-Lys-Ile-Leu-Gly-Lys-Leu-Ile-Arg-NH2] (H-GKWKKILGKLIR-NH2)	14,2 µM	1,3 µM	–	1,8 µM	60,0 µM	> 200
CC[C@H](C)[C@H](NC(=O)[C@H](CCCCN)NC(=O)[C@H](CCCCN)NC(=O)[C@H](CC(C)C)NC(=O)[C@H](CC(C)C)NC(=O)[C@H](CO)NC(=O)[C@H](CCSC)NC(=O)[C@H](Cc1c[nH]c2ccccc12)NC(=O)[C@H](CCCCN)NC(=O)CN)C(=O)N[C@@H](CC(C)C)C(=O)N[C@@H](CCCCN)C(N)=O [(2-A/3), H-Gly-Lys-Trp-Met-Ser-Leu-Leu-Lys-Lys-Ile-Leu-Lys-NH2] (H-GKWMSLLKKILK-NH2)	13,8 µM	1,2 µM	–	2,7 µM	6,3 µM	126
CC[C@H](C)[C@H](NC(=O)[C@H](Cc1c[nH]cn1)NC(=O)[C@H](CCCCN)NC(=O)[C@H](CC(C)C)NC(=O)[C@H](CC(C)C)NC(=O)[C@H](CO)NC(=O)[C@H](CCSC)NC(=O)[C@H](Cc1c[nH]c2ccccc12)NC(=O)[C@H](CCCCN)NC(=O)CN)C(=O)N[C@@H](CC(C)C)C(=O)N[C@@H](CCCCN)C(N)=O [(2), H-Gly-Lys-Trp-Met-Ser-Leu-Leu-Lys-His-Ile-Leu-Lys-NH2] (H-GKWMSLLKHILK-NH2)	33 µM	0,8 µM	–	2,2 µM	7,5 µM	80
CC[C@H](C)[C@H](NC(=O)[C@H](CC(C)C)NC(=O)[C@H](Cc1c[nH]cn1)NC(=O)CNC(=O)[C@H](CC(C)C)NC(=O)[C@@H](NC(=O)[C@H](CCCCN)NC(=O)[C@H](CCCCN)NC(=O)[C@H](Cc1c[nH]c2ccccc12)NC(=O)[C@H](CCSC)NC(=O)CN)[C@@H](C)CC)C(=O)N[C@@H](CCCNC(=N)N)C(N)=O [(1-A/1), H-Gly-Met-Trp-Lys-Lys-Ile-Leu-Gly-His-Leu-Ile-Arg-NH2] (H-GMWKKILGHLIR-NH2)	12,5 µM	1,1 µM	–	1,8 µM	6,0 µM	93
